Source: ChEMBL document CHEMBL1201861, “Genomics of Drug Sensitity in Cancer screening data, Wellcome Trust Sanger Institute”
pIC50: −log10 of the molar value.

Assays:
Assay in all cases: cells
[1] = test system: RS4-11; assay type: functional, cell-based, Homo sapiens; conditions: Homo sapiens, RS4-11;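 further: growth inhibition of RS4-11 cells, read out by a cell viability assay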
Description: SANGER: Inhibition of human RS4-11 cell growth in a cell viability assay.

[2] = test system: HH; assay type: functional, cell-based, Homo sapiens; conditions: Homo sapiens, HH
Description: SANGER: Inhibition of human HH cell growth in a cell viability assay.

[3] = test system: MS-1; assay type: functional, cell-based, Homo sapiens; conditions: Homo sapiens, MS-1;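 further: growth inhibition of MS-1 cells, read out by cell viability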
Description: SANGER: Inhibition of human MS-1 cell growth in a cell viability assay.

[4] = test system: ES3; assay type: functional, cell-based, Homo sapiens; conditions: Homo sapiens, ES3;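 further: growth inhibition of ES3 cells, read out with a cell viability assay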
Description: SANGER: Inhibition of human ES3 cell growth in a cell viability assay.

[5] = test system: TE-11; assay type: functional, cell-based; conditions: Homo sapiens;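 further: growth inhibition of human TE-11 cells, read out by a cell viability assay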
Description: SANGER: Inhibition of human TE-11 cell growth in a cell viability assay.

[6] = test system: JVM-2; assay type: functional, cell-based, Homo sapiens; conditions: Homo sapiens, JVM-2;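 further: growth inhibition of JVM-2 cells determined by a cell viability assay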
Description: SANGER: Inhibition of human JVM-2 cell growth in a cell viability assay.

[7] = test system: L-363; assay type: functional, cell-based, Homo sapiens; conditions: Homo sapiens, L-363
Description: SANGER: Inhibition of human L-363 cell growth in a cell viability assay.

[8] = test system: LC-2-ad; assay type: functional, cell-based, Homo sapiens; conditions: Homo sapiens, LC-2-ad;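 further: growth inhibition of human LC-2-ad cells, read out with a cell viability assay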
Description: SANGER: Inhibition of human LC-2-ad cell growth in a cell viability assay.

[9] = test system: NCI-H1650; assay type: functional, cell-based, Homo sapiens; conditions: Homo sapiens, NCI-H1650;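 further: growth inhibition of human NCI-H1650 cells measured by a cell viability assay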
Description: SANGER: Inhibition of human NCI-H1650 cell growth in a cell viability assay.

[10] = test system: COLO-320-HSR; assay type: functional, cell-based, Homo sapiens; conditions: Homo sapiens, COLO-320-HSR;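 further: growth inhibition of COLO-320-HSR cells, determined with a cell viability assay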
Description: SANGER: Inhibition of human COLO-320-HSR cell growth in a cell viability assay.

[11] = test system: A388; assay type: functional, cell-based; conditions: Homo sapiens;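 further: growth inhibition of human A388 cells, read out with a cell viability assay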
Description: SANGER: Inhibition of human A388 cell growth in a cell viability assay.

[12] = test system: LAN-6; assay type: functional, cell-based, Homo sapiens; conditions: Homo sapiens, LAN-6;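 further: growth inhibition of LAN-6 cells, determined with a cell viability assay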
Description: SANGER: Inhibition of human LAN-6 cell growth in a cell viability assay.

[13] = test system: RCC10RGB; assay type: functional, cell-based, Homo sapiens; conditions: Homo sapiens, RCC10RGB;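 further: growth inhibition of human RCC10RGB cells, read out by a cell viability assay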
Description: SANGER: Inhibition of human RCC10RGB cell growth in a cell viability assay.

[14] = test system: NCI-H23; assay type: functional, cell-based, Homo sapiens; conditions: Homo sapiens, NCI-H23;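 further: cell viability assay measuring growth inhibition of NCI-H23 cells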
Description: SANGER: Inhibition of human NCI-H23 cell growth in a cell viability assay.

[15] = test system: NCI-H526; assay type: functional, cell-based, Homo sapiens; conditions: Homo sapiens, NCI-H526;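 further: growth inhibition of the human NCI-H526 cell line, measured by a cell viability assay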
Description: SANGER: Inhibition of human NCI-H526 cell growth in a cell viability assay.

[16] = test system: TGBC24TKB; assay type: functional, cell-based; conditions: Homo sapiens;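 further: growth inhibition of human TGBC24TKB cells, read out with a cell viability assay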
Description: SANGER: Inhibition of human TGBC24TKB cell growth in a cell viability assay.

[17] = test system: AM-38; assay type: functional, cell-based, Homo sapiens; conditions: Homo sapiens, AM-38;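 further: growth inhibition of AM-38 cells of human origin, read out by a cell viability assay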
Description: SANGER: Inhibition of human AM-38 cell growth in a cell viability assay.

[18] = test system: SH-4; assay type: functional, cell-based; conditions: Homo sapiens;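 further: growth inhibition of SH-4 cells, read out with a cell viability assay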
Description: SANGER: Inhibition of human SH-4 cell growth in a cell viability assay.

[19] = test system: ES6; assay type: functional, cell-based; conditions: Homo sapiens;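 further: growth inhibition of human ES6 cells, read out with a cell viability assay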
Description: SANGER: Inhibition of human ES6 cell growth in a cell viability assay.

[20] = test system: NKM-1; assay type: functional, cell-based, Homo sapiens; conditions: Homo sapiens, NKM-1;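 further: growth inhibition of NKM-1 cells, read out with a cell viability assay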
Description: SANGER: Inhibition of human NKM-1 cell growth in a cell viability assay.

[21] = test system: SF-126; assay type: functional, cell-based, Homo sapiens; conditions: Homo sapiens, SF-126;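 further: growth inhibition of human SF126 cells, read out with a cell viability assay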
Description: SANGER: Inhibition of human SF126 cell growth in a cell viability assay.

[22] = test system: LS-123; assay type: functional, cell-based, Homo sapiens; conditions: Homo sapiens, LS-123
Description: SANGER: Inhibition of human LS-123 cell growth in a cell viability assay.

[23] = test system: SW684; assay type: functional, cell-based, Homo sapiens; conditions: Homo sapiens, SW684; read-out: IC50;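 further: growth inhibition of human SW684 cells, measured by a cell viability assay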
Description: SANGER: Inhibition of human SW684 cell growth in a cell viability assay.

[24] = test system: EKVX; assay type: functional, cell-based, Homo sapiens; conditions: Homo sapiens, EKVX;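 further: growth inhibition of human EKVX cells, read out with a cell viability assay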
Description: SANGER: Inhibition of human EKVX cell growth in a cell viability assay.

[25] = test system: Lu-65; assay type: functional, cell-based, Homo sapiens; conditions: Homo sapiens, Lu-65;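 further: growth inhibition of Lu-65 cancer cells, read out by a cell viability assay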
Description: SANGER: Inhibition of human LU-65 cell growth in a cell viability assay.

[26] = test system: NCI-H82; assay type: functional, cell-based, Homo sapiens; conditions: Homo sapiens, NCI-H82;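 further: growth inhibition of NCI-H82 cells, measured with a cell viability readout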
Description: SANGER: Inhibition of human NCI-H82 cell growth in a cell viability assay.

[27] = test system: LS-1034; assay type: functional, cell-based, Homo sapiens; conditions: Homo sapiens, LS-1034
Description: SANGER: Inhibition of human LS-1034 cell growth in a cell viability assay.

[28] = test system: JVM-3; assay type: functional, cell-based, Homo sapiens; conditions: Homo sapiens, JVM-3;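 further: growth inhibition of human JVM-3 cells, read out with a cell viability assay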
Description: SANGER: Inhibition of human JVM-3 cell growth in a cell viability assay.

[29] = test system: KY821; assay type: functional, cell-based, Homo sapiens; conditions: Homo sapiens, KY821;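 further: growth inhibition of human KY821 cells, read out by a cell viability assay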
Description: SANGER: Inhibition of human KY821 cell growth in a cell viability assay.

[30] = test system: KG-1; assay type: functional, cell-based, Homo sapiens; conditions: Homo sapiens, KG-1;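 further: growth inhibition of KG-1 cells, read out by a cell viability assay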
Description: SANGER: Inhibition of human KG-1 cell growth in a cell viability assay.

[31] = test system: RKO; assay type: functional, cell-based, Homo sapiens; conditions: Homo sapiens, RKO;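 further: growth inhibition of human RKO cells, read out with a cell viability assay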
Description: SANGER: Inhibition of human RKO cell growth in a cell viability assay.

[32] = test system: HAL-01; assay type: functional, cell-based, Homo sapiens; conditions: Homo sapiens, HAL-01;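 further: growth inhibition of human HAL-01 cells, read out with a cell viability assay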
Description: SANGER: Inhibition of human HAL-01 cell growth in a cell viability assay.

[33] = test system: KURAMOCHI; assay type: functional, cell-based, Homo sapiens; conditions: Homo sapiens, KURAMOCHI;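 further: growth inhibition of KURAMOCHI cells, read out with a cell viability assay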
Description: SANGER: Inhibition of human KURAMOCHI cell growth in a cell viability assay.

[34] = test system: NCI-H69; assay type: functional, cell-based, Homo sapiens; conditions: Homo sapiens, NCI-H69;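 further: growth inhibition of the cell line, read out with a cell viability assay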
Description: SANGER: Inhibition of human NCI-H69 cell growth in a cell viability assay.

[35] = test system: OS-RC-2; assay type: functional, cell-based, Homo sapiens; conditions: Homo sapiens, OS-RC-2;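 further: growth inhibition of human OS-RC-2 cells, measured by a cell viability assay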
Description: SANGER: Inhibition of human OS-RC-2 cell growth in a cell viability assay.

[36] = test system: LU-139; assay type: functional, cell-based, Homo sapiens; conditions: Homo sapiens, LU-139
Description: SANGER: Inhibition of human LU-139 cell growth in a cell viability assay.

[37] = test system: NCI-H747; assay type: functional, cell-based, Homo sapiens; conditions: Homo sapiens, NCI-H747;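 further: growth inhibition of human NCI-H747 cells, read out by a cell viability assay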
Description: SANGER: Inhibition of human NCI-H747 cell growth in a cell viability assay.

[38] = test system: LAMA-84; assay type: functional, cell-based, Homo sapiens; conditions: Homo sapiens, LAMA-84;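 further: growth inhibition of LAMA-84 cells, read out with a cell viability assay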
Description: SANGER: Inhibition of human LAMA-84 cell growth in a cell viability assay.

[39] = test system: A4-Fuk; assay type: functional, cell-based, Homo sapiens; conditions: Homo sapiens, A4-Fuk;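 further: growth inhibition of A4-Fuk cells, read out by a cell viability assay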
Description: SANGER: Inhibition of human A4-Fuk cell growth in a cell viability assay.

[40] = test system: SNU-5; assay type: functional, cell-based, Homo sapiens; conditions: Homo sapiens, SNU-5;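 further: cell viability readout used to measure growth inhibition in human NCI-SNU-5 cells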
Description: SANGER: Inhibition of human NCI-SNU-5 cell growth in a cell viability assay.

[41] = test system: D-263MG; assay type: functional, cell-based, Homo sapiens; conditions: Homo sapiens, D-263MG
Description: SANGER: Inhibition of human D-263MG cell growth in a cell viability assay.

[42] = test system: LU-134-A; assay type: functional, cell-based, Homo sapiens; conditions: Homo sapiens, LU-134-A
Description: SANGER: Inhibition of human LU-134-A cell growth in a cell viability assay.

[43] = test system: KE-37; assay type: functional, cell-based, Homo sapiens; conditions: Homo sapiens, KE-37;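 further: growth inhibition of KE-37 cells, read out with a cell viability assay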
Description: SANGER: Inhibition of human KE-37 cell growth in a cell viability assay.

[44] = test system: C8166; assay type: functional, cell-based, Homo sapiens; conditions: Homo sapiens, C8166;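 further: growth inhibition of human C8166 cells measured by a cell viability assay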
Description: SANGER: Inhibition of human C8166 cell growth in a cell viability assay.

[45] = test system: CTV-1; assay type: functional, cell-based, Homo sapiens; conditions: Homo sapiens, CTV-1;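 further: growth inhibition of the cell line, read out with a cell viability assay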
Description: SANGER: Inhibition of human CTV-1 cell growth in a cell viability assay.

[46] = test system: EW-18; assay type: functional, cell-based, Homo sapiens; conditions: Homo sapiens, EW-18; read-out: IC50;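 further: growth inhibition of EW-18 cells, read out by a cell viability assay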
Description: SANGER: Inhibition of human EW-18 cell growth in a cell viability assay.

[47] = test system: LXF-289 cell line; assay type: functional, cell-based; conditions: Homo sapiens
Description: SANGER: Inhibition of human LXF-289 cell growth in a cell viability assay.

[48] = test system: QIMR-WIL; assay type: functional, cell-based, Homo sapiens; conditions: Homo sapiens, QIMR-WIL;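 further: growth inhibition of QIMR-WIL cells, read out with a cell viability assay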
Description: SANGER: Inhibition of human QIMR-WIL cell growth in a cell viability assay.

[49] = test system: LB1047-RCC; assay type: functional, cell-based, Homo sapiens; conditions: Homo sapiens, LB1047-RCC;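 further: inhibition of cell growth, determined with a cell viability assay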
Description: SANGER: Inhibition of human LB1047-RCC cell growth in a cell viability assay.

[50] = test system: HDLM-2; assay type: functional, cell-based, Homo sapiens; conditions: Homo sapiens, HDLM-2;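 further: cell viability assay measuring suppression of HDLM-2 proliferation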
Description: SANGER: Inhibition of human HDLM-2 cell growth in a cell viability assay.

**Q.** Which results are given for CN(NC(=O)CC(=O)NN(C)C(=S)c1ccccc1)C(=S)c1ccccc1 [ELESCLOMOL]?
**A.** pIC50 [1]: < 6.70; pIC50 [2]: < 6.70; pIC50 [3]: 6.78; pIC50 [4]: 8.24; pIC50 [5]: 7.34; pIC50 [6]: < 6.70; pIC50 [7]: 7.91; pIC50 [8]: 7.56; pIC50 [9]: 7.52; pIC50 [10]: < 6.70; pIC50 [11]: < 6.70; pIC50 [12]: 7.26; pIC50 [13]: < 6.70; pIC50 [14]: 7.91; pIC50 [15]: < 6.70; pIC50 [16]: 7.89; pIC50 [17]: 6.77; pIC50 [18]: < 6.70; pIC50 [19]: 7.40; pIC50 [20]: < 6.70; pIC50 [21]: 8.71; pIC50 [22]: 7.31; pIC50 [23]: < 6.70; pIC50 [24]: 7.40; pIC50 [25]: < 6.70; pIC50 [26]: < 6.70; pIC50 [27]: < 6.70; pIC50 [28]: < 6.70; pIC50 [29]: < 6.70; pIC50 [30]: 7.40; pIC50 [31]: 7.68; pIC50 [32]: 6.89; pIC50 [33]: < 6.70; pIC50 [34]: < 6.70; pIC50 [35]: 7.32; pIC50 [36]: 6.92; pIC50 [37]: 7.24; pIC50 [38]: 7.28; pIC50 [39]: 6.97; pIC50 [40]: < 6.70; pIC50 [41]: < 6.70; pIC50 [42]: < 6.70; pIC50 [43]: < 6.70; pIC50 [44]: < 6.70; pIC50 [45]: < 6.70; pIC50 [46]: < 6.70; pIC50 [47]: 7.85; pIC50 [48]: 7.48; pIC50 [49]: 7.97; pIC50 [50]: < 6.70

**Q.** Which results are given for CCCCCCCCCCCC1=C(O)C(=O)C=C(O)C1=O [EMBELIN]?
**A.** pIC50 [1]: 4.98; pIC50 [2]: < 4.49; pIC50 [3]: < 4.49; pIC50 [4]: 4.81; pIC50 [5]: < 4.49; pIC50 [6]: < 4.49; pIC50 [7]: 4.62; pIC50 [8]: 4.89; pIC50 [9]: 4.68; pIC50 [10]: 4.77; pIC50 [11]: 5.17; pIC50 [12]: < 4.49; pIC50 [13]: < 4.49; pIC50 [14]: < 4.49; pIC50 [15]: < 4.49; pIC50 [16]: 4.58; pIC50 [17]: 4.90; pIC50 [18]: 4.60; pIC50 [19]: 5.02; pIC50 [20]: < 4.49; pIC50 [21]: 4.99; pIC50 [22]: 5.03; pIC50 [23]: < 4.49; pIC50 [24]: < 4.49; pIC50 [25]: < 4.49; pIC50 [26]: < 4.49; pIC50 [27]: < 4.49; pIC50 [28]: < 4.49; pIC50 [29]: < 4.49; pIC50 [30]: < 4.49; pIC50 [31]: 5.70; pIC50 [32]: 4.59; pIC50 [33]: 5.15; pIC50 [34]: < 4.49; pIC50 [35]: 5.03; pIC50 [36]: < 4.49; pIC50 [37]: 4.85; pIC50 [38]: 4.73; pIC50 [39]: < 4.49; pIC50 [40]: < 4.49; pIC50 [41]: < 4.49; pIC50 [42]: < 4.49; pIC50 [43]: 5.46; pIC50 [44]: 5.12; pIC50 [45]: 5.03; pIC50 [46]: 4.98; pIC50 [47]: 5.05; pIC50 [48]: 5.28; pIC50 [49]: 5.24; pIC50 [50]: 4.76
